Converted amounts (≈) assume the structure as drawn.
Key:
Test in all cases: MIC, broth-microdilution (CLSI VET01-A4)
Assay type in all cases: cell-based
[1] = tested on: Mannheimia haemolytica MH 13093 (XB0472-6014.1, BRD field isolate)
Protocol: (§1) The Minimum inhibitory concentrations (MIC) of compounds according to the invention for a number of veterinary bacterial pathogens were determined by the broth-microdilution method according to CLSI document VET01-A4.
(§2) Microdilution trays containing a doubling dilution series of the test compound were used for the tests. The MIC results were interpreted according to the CLSI documents VET01-S3. The lowest concentration of compound at which no visible growth (i.e. no turbidity) detected by the unaided eye was recorded as the MIC.

[2] = tested on: Mannheimia haemolytica MH 10720 (154, BRD field isolate); conditions: Mannheimia haemolytica MH 10720
Protocol: as §1, §2
(§3) The Minimum inhibitory concentrations (MIC) of compounds according to the invention were determined by the broth-microdilution method according to CLSI document VET01-A4.
(§4) Microdilution trays containing a doubling dilution series of the test compound were used for the tests.
(§5) The MIC results were interpreted according to the CLSI documents VET01-S3. The lowest concentration of compound at which no visible growth (i.e. no turbidity) detected by the unaided eye was recorded as the MIC.

[3] = tested on: Mannheimia haemolytica MH 12587 (1071, BRD field isolate, macrolide-resistance: erm+, E+); conditions: Mannheimia haemolytica MH 12587, macrolide-resistant
Protocol: as §1, §2, §3, §4, §5

[4] = tested on: Mannheimia haemolytica MH 6357 (M7/2, reference strain, cattle infection strain); conditions: Mannheimia haemolytica MH 6357; for MIC: read-out: MIC MH 6357
Protocol: as §1, §2, §3, §4, §5

[5] = tested on: Pasteurella multocida PM 6391 (ATCC 43137, reference strain); conditions: Pasteurella multocida PM 6391
Protocol: as §1, §2, §3, §4, §5

[6] = tested on: Mannheimia haemolytica MH 6374 (ATCC 33396, reference strain); conditions: Mannheimia haemolytica MH 6374; for MIC: read-out: MIC MH 6374
Protocol: as §1, §2, §3, §4, §5

[7] = tested on: Pasteurella multocida PM 6267 (P 2225 (L386), reference strain, mouse infection strain); conditions: Pasteurella multocida PM 6267
Protocol: as §1, §2, §3, §4, §5

[8] = tested on: Pasteurella multocida PM 12080 (IV102277-0093, BRD field isolate); conditions: Pasteurella multocida PM 12080
Protocol: as §1, §2, §3, §4, §5

Row | Structure (SMILES) | MIC [1] [µM] | MIC MH 10720 [2] | MIC MH 12587 [3] [µM] | MIC [4] [µM] | MIC PM 6391 [5] | MIC [6] [µM] | MIC PM 6267 [7] | MIC PM 12080 [8] | MIC MH 6357 [4] | MIC MH 6374 [6] | MIC ([2]; read-out: MIC MH 10720) [µM]
1 | CC(O)C(NC(=O)c1ccc(C#CC#CC=CCNCc2cccs2)cc1)C(=O)NO (centres unmarked) [Compound 464] | 0.8 (≈ 0.35 µg/mL) | <=0.1 μM | 0.8 (≈ 0.35 µg/mL) | 0.4 (≈ 0.175 µg/mL) | <=0.1 μM | 0.2 (≈ 0.0875 µg/mL) | <=0.1 μM | <=0.1 μM |  |  | 
2 | C[C@@H](O)[C@H](NC(=O)c1ccc(C#Cc2ccc(CNCc3ccc(F)cc3)s2)cc1)C(=O)NO [Compound 485] | 0.2 (≈ 0.0963 µg/mL) | <=0.1 μM | 0.4 (≈ 0.193 µg/mL) |  | <=0.1 μM |  | <=0.1 μM | <=0.1 μM | <=0.1 μM | <=0.1 μM | 
3 | C=C(C)CNCc1ccc(C#Cc2ccc(C(=O)N[C@H](C(=O)NO)[C@@H](C)O)cc2)s1 [Compound 476] | 0.4 (≈ 0.171 µg/mL) | <=0.1 μM | 0.8 (≈ 0.342 µg/mL) | 0.2 (≈ 0.0855 µg/mL) | <=0.1 μM |  | <=0.1 μM | <=0.1 μM |  | <=0.1 μM | 
4 | C#CCNCc1ccc(C#Cc2ccc(C(=O)N[C@H](C(=O)NO)[C@@H](C)O)cc2)cn1 [Compound 490] | 1.6 (≈ 0.65 µg/mL) | <=0.1 μM | 1.6 (≈ 0.65 µg/mL) | 0.4 (≈ 0.163 µg/mL) | <=0.1 μM | 0.8 (≈ 0.325 µg/mL) |  | <=0.1 μM |  |  | 
5 | C[C@@H](O)[C@H](NC(=O)c1ccc(C#Cc2ccc(CN3CC=CC3)s2)cc1)C(=O)NO [Compound 478] | 0.2 (≈ 0.0851 µg/mL) | <=0.1 μM | 0.4 (≈ 0.17 µg/mL) |  | <=0.1 μM |  | <=0.1 μM | <=0.1 μM | <=0.1 μM | <=0.1 μM | 
6 | CC(O)C(NC(=O)c1ccc(C#CC#CC=CCNCc2ccc(Cl)cc2)cc1)C(=O)NO (centres unmarked) [Compound 453] | 1.6 (≈ 0.745 µg/mL) | <=0.1 μM | 1.6 (≈ 0.745 µg/mL) | 1.6 (≈ 0.745 µg/mL) | <=0.1 μM | 0.4 (≈ 0.186 µg/mL) | <=0.1 μM | <=0.1 μM |  |  | 
7 | CC(O)C(NC(=O)c1ccc(C#CC#CC=CCNCc2ccnc(Cl)c2)cc1)C(=O)NO (centres unmarked) [Compound 461] | 1.6 (≈ 0.747 µg/mL) | <=0.1 μM | 1.6 (≈ 0.747 µg/mL) | 0.4 (≈ 0.187 µg/mL) | <=0.1 μM | 0.4 (≈ 0.187 µg/mL) | <=0.1 μM | <=0.1 μM |  |  | 
8 | Cc1cnc(CNCc2ccc(C#Cc3ccc(C(=O)N[C@H](C(=O)NO)[C@@H](C)O)cc3)cc2)o1 [Compound 474] | 0.8 (≈ 0.37 µg/mL) | <=0.1 μM | 0.8 (≈ 0.37 µg/mL) | 0.2 (≈ 0.0925 µg/mL) | <=0.1 μM | 0.4 (≈ 0.185 µg/mL) | <=0.1 μM | <=0.1 μM |  |  | 
9 | C=C(C)CNCc1ccc(C#Cc2ccc(C(=O)N[C@H](C(=O)NO)[C@@H](C)O)cc2)cn1 [Compound 486] | 1.6 (≈ 0.676 µg/mL) |  | 1.6 (≈ 0.676 µg/mL) | 0.8 (≈ 0.338 µg/mL) | <=0.1 μM | 1.6 (≈ 0.676 µg/mL) | <=0.1 μM | <=0.1 μM |  |  | 0.2 (≈ 0.0845 µg/mL)
10 | C[C@@H](O)[C@H](NC(=O)c1ccc(C#Cc2ccc(CNCC(F)(F)F)nc2)cc1)C(=O)NO [Compound 487] | 1.6 (≈ 0.721 µg/mL) | <=0.1 μM | 1.6 (≈ 0.721 µg/mL) | 0.4 (≈ 0.18 µg/mL) | <=0.1 μM | 1.6 (≈ 0.721 µg/mL) | <=0.1 μM | <=0.1 μM |  |  | 
11 | C#CCNCc1ccc(C#Cc2ccc(C(=O)N[C@H](C(=O)NO)[C@@H](C)O)cc2)cc1 [C. 469] | 0.4 (≈ 0.162 µg/mL) | <=0.1 μM | 0.4 (≈ 0.162 µg/mL) | 0.2 (≈ 0.0811 µg/mL) | <=0.1 μM |  | <=0.1 μM | <=0.1 μM |  | <=0.1 μM | 
12 | C[C@@H](O)[C@H](NC(=O)c1ccc(C#Cc2ccc(CN3CC=CC3)cc2)cc1)C(=O)NO [Compound 468] | 0.4 (≈ 0.168 µg/mL) | <=0.1 μM | 0.4 (≈ 0.168 µg/mL) |  | <=0.1 μM |  | <=0.1 μM | <=0.1 μM | <=0.1 μM | <=0.1 μM | 

Source: patent publication US20230000813A1, “COMPOUND FOR THE TREATMENT OF BOVINE OR SWINE RESPIRATORY DISEASE” (Intervet Inc., priority 2016, published 2023)
